Data from patent publication US20250041380A1, “R[…] FOR SARS-COV2 DISEASE” (priority 2021, published 2025).
Read-outs that look alike come from different tables or passages of the source.

Tests used:
Bladder cells (T24) = assay: tissue or blood; format: cell-based; settings: Spike S1 Protein (5 μg/ml)
Lung (A549) cells = assay: in vitro; format: cell-based, Human; settings: 48 h
Description: (§1) A549 cells were plated in DMEM+10% FBS at a density of 10,000 cells/well in 96-well culture plates and incubated at 37° C. for 24 h. THP-1 cells were plated in RPMI+10% FBS at a density of 10,000 cells/well in 96-well culture plates and incubated at 37° C. for 24 h. Cells were sera-starved for 24 h. […] Untreated cells were used as control. Cells treated with dexamethasone and hydroxychloroquine were included as positive control. After treatment, cells were incubated in a 5% CO2 incubator for 48 h.

in vitro = format: cell-based, Human; settings: human, 1 μM
Description: as §1

Kidney cells (HEK-293) = assay: cells; format: cell-based; settings: Spike S1 Protein (100 ng/ml); for inhibition at 0.1 µM / inhibition at 1 µM / inhibition at 10 µM / inhibition at 20 µM: Homo sapiens, HEK293
[1] = test system: Endothelial cells (EA.hy926); assay: cells; format: cell-based; settings: Spike S1 Protein (1 μg/ml); for inhibition at 0.1 µM / inhibition at 1 µM / inhibition at 10 µM / inhibition at 20 µM: Homo sapiens, EA.hy 926
Colon cells (HT-29) = assay: cells; format: cell-based; settings: Spike S1 Protein (1 μg/ml)

CCN(CCO)CCCC(C)Nc1ccnc2cc(Cl)ccc12 (centres unmarked) [Hydroxychloroquine sulphate]
Con. of IL-8 (Bladder cells (T24); 0.1 μM): 2661.3
Conc. of IL-6 (Bladder cells (T24); 0.1 μM): 432.0
inhibition at 0.1 µM (Bladder cells (T24); 0.1 μM, read-out: % Inhibition (IL-6)): 25.2%
inhibition at 0.1 µM (Bladder cells (T24); 0.1 μM, read-out: % Inhibition (IL-8)): 37.7%
Con. of IL-8 (Bladder cells (T24); 1 μM): 2527.7
Conc. of IL-6 (Bladder cells (T24); 1 μM): 410.8
inhibition at 1 µM (Bladder cells (T24); 1 μM, read-out: % Inhibition (IL-6)): 28.9%
inhibition at 1 µM (Bladder cells (T24); 1 μM, read-out: % Inhibition (IL-8)): 40.9%
Con. of IL-8 (Bladder cells (T24); 10 μM): 2679.5
Conc. of IL-6 (Bladder cells (T24); 10 μM): 430.2
inhibition at 10 µM (Bladder cells (T24); 10 μM, read-out: % Inhibition (IL-6)): 25.5%
inhibition at 10 µM (Bladder cells (T24); 10 μM, read-out: % Inhibition (IL-8)): 37.3%
Con. of IL-8 (Bladder cells (T24); 20 μM): 2470.0
Conc. of IL-6 (Bladder cells (T24); 20 μM): 415.8
inhibition at 20 µM (Bladder cells (T24); 20 μM, read-out: % Inhibition (IL-6)): 28%
inhibition at 20 µM (Bladder cells (T24); 20 μM, read-out: % Inhibition (IL-8)): 42.2%
% Viability (Lung (A549) cells; 0.1 μM): 79.0%
% Viability (Lung (A549) cells; 1 μM): 105.2%
% Viability (Lung (A549) cells; 5 μM): 101.0%
% Viability (Lung (A549) cells; 10 μM): 110.9%
% Viability (Lung (A549) cells; 20 μM): 72.4%
cytotoxicity at 48 h, 1 µM (in vitro): -5.2%
Con. of IL-8 (Kidney cells (HEK-293); 0.1 μM): 651.8 pg/mL
Conc. of IL-6 (Kidney cells (HEK-293); 0.1 μM): 94.2 pg/mL
Con. of IL-8 (Kidney cells (HEK-293); 1 μM): 678.2 pg/mL
Conc. of IL-6 (Kidney cells (HEK-293); 1 μM): 97.4 pg/mL
Con. of IL-8 (Kidney cells (HEK-293); 10 μM): 959.1 pg/mL
Conc. of IL-6 (Kidney cells (HEK-293); 10 μM): 137.7 pg/mL
Con. of IL-8 (Kidney cells (HEK-293); 20 μM): 1809.1 pg/mL
Conc. of IL-6 (Kidney cells (HEK-293); 20 μM): 260.0 pg/mL
inhibition at 0.1 µM (Kidney cells (HEK-293); 0.1 μM, read-out: % Inhibition (wrt Control), IL-6): 63.8%
inhibition at 0.1 µM (Kidney cells (HEK-293); 0.1 μM, read-out: % Inhibition (wrt Control), IL-8): 66%
inhibition at 1 µM (Kidney cells (HEK-293); 1 μM, read-out: % Inhibition (wrt Control), IL-6): 62.6%
inhibition at 1 µM (Kidney cells (HEK-293); 1 μM, read-out: % Inhibition (wrt Control), IL-8): 64.6%
inhibition at 10 µM (Kidney cells (HEK-293); 10 μM, read-out: % Inhibition (wrt Control), IL-6): 47.1%
inhibition at 10 µM (Kidney cells (HEK-293); 10 μM, read-out: % Inhibition (wrt Control), IL-8): 49.9%
inhibition at 20 µM (Kidney cells (HEK-293); 20 μM, read-out: % Inhibition (wrt Control), IL-6): 0%
inhibition at 20 µM (Kidney cells (HEK-293); 20 μM, read-out: % Inhibition (wrt Control), IL-8): 5.5%
Con. of IL-8 ([1]; 0.1 μM): 826.7 pg/mL
Conc. of IL-6 ([1]; 0.1 μM): 145.1 pg/mL
Con. of IL-8 ([1]; 1 μM): 1026.6 pg/mL
Conc. of IL-6 ([1]; 1 μM): 200.3 pg/mL
Con. of IL-8 ([1]; 10 μM): 1756.7 pg/mL
Conc. of IL-6 ([1]; 10 μM): 64.0 pg/mL
Con. of IL-8 ([1]; 20 μM): 1573.3 pg/mL
Conc. of IL-6 ([1]; 20 μM): 58.9 pg/mL
inhibition at 0.1 µM ([1]; 0.1 μM, read-out: % Inhibition (wrt, IL-6)): 56.9%
inhibition at 0.1 µM ([1]; 0.1 μM, read-out: % Inhibition (wrt, IL-8)): 48.8%
inhibition at 1 µM ([1]; 1 μM, read-out: % Inhibition (wrt, IL-6)): 40.5%
inhibition at 1 µM ([1]; 1 μM, read-out: % Inhibition (wrt, IL-8)): 36.5%
inhibition at 10 µM ([1]; 10 μM, read-out: % Inhibition (wrt, IL-6)): 81%
inhibition at 10 µM ([1]; 10 μM, read-out: % Inhibition (wrt, IL-8)): 0%
inhibition at 20 µM ([1]; 20 μM, read-out: % Inhibition (wrt, IL-6)): 82.5%
inhibition at 20 µM ([1]; 20 μM, read-out: % Inhibition (wrt, IL-8)): 2.6%
Con. of IL-8 (Colon cells (HT-29); 0.1 μM): 49.1 pg/mL
Conc. of IL-6 (Colon cells (HT-29); 0.1 μM): 114.8 pg/mL
Con. of IL-8 (Colon cells (HT-29); 1 μM): 92.3 pg/mL
Conc. of IL-6 (Colon cells (HT-29); 1 μM): 91.1 pg/mL
Con. of IL-8 (Colon cells (HT-29); 10 μM): 99.5 pg/mL
Conc. of IL-6 (Colon cells (HT-29); 10 μM): 125.2 pg/mL
Con. of IL-8 (Colon cells (HT-29); 20 μM): 37.6 pg/mL
Conc. of IL-6 (Colon cells (HT-29); 20 μM): 104.2 pg/mL
